Results as given in patent publication US4645769A, “1-oxa-1-dethia-cephalosporin compounds and antibacterial agent comprising the same” (Merck & Co., Inc., priority 1985, dated 1987).
In brackets after ≈: the same amount, converted by molar mass. Structures can show the parent of a compound that is named as a salt.

Key:
[1] = system: Pseudomonas aeruginosa E-2; experiment: Minimum Inhibitory Concentration (MIC), antibacterial spectrum in vitro; format: cell-based; conditions: Pseudomonas aeruginosa E-2; for MIC: E2, read-out: Minimum Inhibitory Concentration (MIC)
Proteus morganii 1510 = experiment: as above; format: cell-based; conditions: Proteus morganii 1510; for MIC: Morganella morganii, read-out: Minimum Inhibitory Concentration (MIC)
[2] = system: Esherichia coli NIHJ JC-2; experiment: as above; format: cell-based
[3] = system: Salmonella typhimurium LT-2; experiment: as above; format: cell-based; conditions: Salmonella typhimurium LT-2; for MIC: Salmonella enterica, read-out: Minimum Inhibitory Concentration (MIC)
[4] = system: Staphylococcus aureus 209 P JC-1; experiment: as above; format: cell-based; conditions: Staphylococcus aureus 209 P JC-1; for MIC: 209PJC1, read-out: Minimum Inhibitory Concentration (MIC)
[5] = system: Streptococcus faecalis ATCC 8043; experiment: as above; format: cell-based; conditions: Streptococcus faecalis ATCC 8043; for MIC: Enterococcus faecalis, ATCC8043, read-out: Minimum Inhibitory Concentration (MIC)
[6] = system: Klebsiella pneumoniae PCI 602; experiment: as above; format: cell-based; conditions: Klebsiella pneumoniae PCI 602; for MIC: PCI602, read-out: Minimum Inhibitory Concentration (MIC)
[7] = system: Pseudomonas aeruginosa MB-3833; experiment: as above; format: cell-based; conditions: Pseudomonas aeruginosa MB-3833; for MIC: MB3833, read-out: Minimum Inhibitory Concentration (MIC)
[8] = system: Citrobacter freundii GN-346; experiment: as above; format: cell-based; conditions: Citrobacter freundii GN-346; for MIC: GN346, read-out: Minimum Inhibitory Concentration (MIC)
Pseudomonas aeruginosa = experiment: Antibacterial activity against Pseudomonas aeruginosa (from Table 1); format: cell-based; conditions: in words
Streptococcus faecalis = experiment: Antibacterial activity against Streptococcus faecalis (statement in words); format: cell-based
[9] = Concentration in Blood Serum after subcutaneous dosing (bioassay using Escherichia coli); format: in vivo; conditions: mouse, sc, 25 mg/Kg subcutaneously, mice
Method: The concentration of the compound in the serum was determined by bioassay using Escherichia coli as assay microorganism.

Row | Structure (SMILES) | MIC [1] [µg/mL] | MIC (Proteus morganii 1510) [µg/mL] | MIC [2] [µg/mL] | MIC [3] [µg/mL] | MIC [4] [µg/mL] | MIC [5] [µg/mL] | MIC [6] [µg/mL] | MIC [7] [µg/mL] | MIC [8] [µg/mL] | effectiveness against Pseudomonas aeruginosa (Pseudomonas aeruginosa) | other results
1 | CCN1CCN(C(=O)NC(C(=O)NC2C(=O)N3C(C(=O)[O-])=C(CSc4cc[n+](C)cc4)COC23)c2csc(N)n2)C(=O)C1=O (racemic) [Compound 20, (6R,7R)-7-(DL-2-(2-Aminothiazole-4-yl)-2-(4-ethyl-2,3-dioxopiperazine-1-ylcarboxamide)acetamide)-3-(1-methylpyridinium-4-ylthiomethyl)-1-oxa-1-dethiaceph-3-em-4-carboxylate (Sodium Salt)] | 25 | 6.25 | 0.1 | 0.2 | 0.39 | > 100 | 0.2 | 100 | 25 | – | –
2 | CCN1CCN(C(=O)NC(C(=O)NC2C(=O)N3C(C(=O)[O-])=C(CSc4cc[n+](CC(=O)O)cc4)COC23)c2csc(N)n2)C(=O)C1=O (racemic) [Compound 21, (6R,7R)-7-(DL-2-(2-Aminothiazole-4-yl)-2-(4-ethyl-2,3-dioxopiperazine-1-ylcarboxamide)acetamide)-3-(1-carboxymethylpyridinium-4-yl-thiomethyl)-1-oxa-1-dethiaceph-3-em-4-carboxylate (Sodium Salt)] | > 100 | 12.5 | 0.05 | 0.1 | 1.56 | 50 | 0.05 | > 100 | > 100 | – | –
3 | CC1OC2C(NC(=O)C(=NOC(C)(C)C(=O)O)c3csc(N)n3)C(=O)N2C(C(=O)[O-])=C1CSc1cc[n+](CC(=O)O)cc1 [Compound 5, (6R,7R)-7-((Z)-2-(2-Aminothiazole-4-yl)-2-(2-carboxyprop-2-oxyimino)acetamide)-(2S)-2-methyl-3-(1-carboxymethylpyridinium-4-ylthiomethyl-1-oxa-1-dethiaceph-3-em-4-carboxylate (Sodium Salt)] | 6.25 | 1.56 | 0.39 | 0.1 | 12.5 | 50 | 0.39 | 3.13 | 3.13 | – | –
4 | CON=C(C(=O)NC1C(=O)N2C(C(=O)[O-])=C(CSc3cc[n+](CC(=O)O)cc3)C(C)OC12)c1csc(N)n1 [Compound 7, (6R,7R)-7-((Z)-2-(2-Aminothiazole-4-yl)-2-methoxyiminoacetamide)-(2S)-2-methyl-3-(1-carboxymethylpyridinium-4-ylthiomethyl)-1-oxa-1-dethiaceph-3-em-4-carboxylate (Sodium Salt)] | 12.5 | 0.78 | < 0.025 | < 0.025 | 0.39 | 12.5 | 0.025 | 12.5 | 6.25 | – | effectiveness against Streptococcus faecalis (Streptococcus faecalis): effective against Streptococcus faecalis
5 | C[C@@H]1O[C@@H]2[C@@H](NC(=O)/C(=N\OCC(=O)[O-])c3csc(N)n3)C(=O)N2C(C(=O)[O-])=C1CSc1cc[n+](C)cc1.[Na+] [Compound 18, (6R,7R)-7-((Z)-2-(2-Aminothiazole-4-yl)-2-carboxymethoxyiminoacetamide)-(2S)-2-methyl-3-(1-methylpyridinium-4-ylthiomethyl)-1-oxa-1-dethiaceph-3-em-4-carboxylate (Sodium Salt)] | – | – | – | – | – | – | – | – | – | – | Minimum Inhibitory Concentration (MIC) [1]: 1.56 µg/mL; Minimum Inhibitory Concentration (MIC) (Proteus morganii 1510): 0.10 µg/mL; Minimum Inhibitory Concentration (MIC) [2]: 0.05 µg/mL; Minimum Inhibitory Concentration (MIC) [3]: < 0.025 µg/mL; Minimum Inhibitory Concentration (MIC) [4]: 0.78 µg/mL; Minimum Inhibitory Concentration (MIC) [5]: 25 µg/mL; Minimum Inhibitory Concentration (MIC) [6]: 0.10 µg/mL; Minimum Inhibitory Concentration (MIC) [7]: 1.56 µg/mL; Minimum Inhibitory Concentration (MIC) [8]: 1.56 µg/mL
6 | CC1OC2C(NC(=O)C(=NOCC(=O)O)c3csc(N)n3)C(=O)N2C(C(=O)[O-])=C1CSc1cc[n+](CCF)cc1 [Compound 19, (6R,7R)-7-((Z)-2-(2-Aminothiazole-4-yl)-2-carboxymethoxyiminoacetamide)-(2S)-2-methyl-3-(1-(2-fluoroethyl)pyridinium-4-ylthiomethyl)-1-oxa-1-dethiaceph-3-em-4-carboxylate (Sodium Salt)] | 3.13 | 0.2 | 0.78 | 0.1 | 3.13 | > 100 | 0.39 | 3.13 | 1.56 | – | –

Continued, in another order:

Row | MIC [1] [µg/mL] | MIC (Proteus morganii 1510) [µg/mL] | MIC [2] [µg/mL] | MIC [3] [µg/mL] | MIC [4] [µg/mL] | MIC [5] [µg/mL] | MIC [6] [µg/mL] | MIC [7] [µg/mL] | MIC [8] [µg/mL] | Structure (SMILES) | effectiveness against Pseudomonas aeruginosa (Pseudomonas aeruginosa) | other results
7 | 3.13 | 0.1 | 0.2 | < 0.025 | 0.78 | 50 | 0.2 | 3.13 | 0.78 | CC[n+]1ccc(SCC2=C(C(=O)[O-])N3C(=O)C(NC(=O)C(=NOC(C)(C)C(=O)O)c4csc(N)n4)C3OC2C)cc1 [Compound 2, (6R,7R)-7-((Z)-2-(2-Aminothiazole-4-yl)-2-(2-carboxyprop-2-oxyimino)acetamide)-(2S)-2-methyl-3-(1-ethyl-pyridinium-4-ylthiomethyl)-1-oxa-1-dethiaceph-3-em-4-carboxylate (Sodium Salt)] | effective against Pseudomonas aeruginosa | –
8 | 1.56 | 0.2 | 0.2 | < 0.025 | 0.78 | 25 | 0.2 | 1.56 | 0.78 | CC1OC2C(NC(=O)C(=NOC(C)(C)C(=O)O)c3csc(N)n3)C(=O)N2C(C(=O)[O-])=C1CSc1cc[n+](CCF)cc1 [Compound 3, (6R,7R)-7-((Z)-2-(2-Aminothiazole-4-yl)-2-(2-carboxyprop-2-oxyimino)acetamide)-(2S)-2-methyl-3-(1-(2-fluoroethyl)pyridinium-4-ylthiomethyl)-1-oxa-1-dethiaceph-3-em-4-carboxylate (Sodium Salt)] | effective against Pseudomonas aeruginosa | –
9 | 3.13 | 0.2 | 0.2 | 0.05 | 1.56 | 50 | 0.39 | 3.13 | 1.56 | CC1OC2C(NC(=O)C(=NOC(C)(C)C(=O)O)c3csc(N)n3)C(=O)N2C(C(=O)[O-])=C1CSc1cc[n+](CC(F)(F)F)cc1 [Compound 4, (6R,7R)-7-((Z)-2-(2-Aminothiazole-4-yl)-2-(2-carboxyprop-2-oxyimino)acetamide)-(2S)-2-methyl-3-(1-(2,2,2-trifluoroethyl)pyridinium-4-ylthionethyl)-1-oxa-1-dethia-3-ceph-4-carboxylate (Sodium Salt)] | effective against Pseudomonas aeruginosa | –
10 | 3.13 | 0.78 | 0.1 | < 0.025 | 6.25 | 50 | 0.1 | 3.13 | 12.5 | CC1OC2C(NC(=O)C(=NOCC(=O)O)c3csc(N)n3)C(=O)N2C(C(=O)[O-])=C1CSc1cc[n+](CC(=O)O)cc1 [Compound 9, (6R,7R)-7-((Z)-2-(2-Aminothiazole-4-yl)-2-carboxymethoxyiminoacetamide)-(2S)-2-methyl-3-(1-carboxymethylpyridinium-4-ylthiomethyl)-1-oxa-1-dethiaceph-3-em-4-carboxylate (Sodium Salt)] | effective against Pseudomonas aeruginosa | concentration at 0.5 h ([9]; 1/2 hour): 25000 ng/mL; concentration at 0.25 h ([9]; 1/4 hour): 32000 ng/mL; concentration at 5 min ([9]; 1/12 hour): 36000 ng/mL; concentration at 1 h ([9]; 1 hour): 5100 ng/mL
11 | 3.13 (≈ 5.14 µM) | 6.25 (≈ 10.3 µM) | 0.1 (≈ 0.164 µM) | 0.5 (≈ 0.822 µM) | 6.25 (≈ 10.3 µM) | 50 (≈ 82.2 µM) | 0.1 (≈ 0.164 µM) | 3.13 (≈ 5.14 µM) | 50 (≈ 82.2 µM) | CC(C)(ON=C(C(=O)NC1C(=O)N2C(C(=O)[O-])=C(CSc3cc[n+](CCF)cc3)COC12)c1csc(N)n1)C(=O)O [Compound 15, (6R,7R)-7-((Z)-2-(2-Aminothiazole-4-yl)-2-2-carboxyprop-2-oxyimino)acetamide)-3-((2-fluoroethyl)pyridinium-4-ylthiomethyl)-1-oxa-1-dethiaceph-3-em-4-carboxylate] | effective against Pseudomonas aeruginosa | –
12 | 1.56 | 0.2 | 0.025 | < 0.025 | 0.78 | 25 | 0.05 | 1.56 | 1.56 | CC1OC2C(NC(=O)C(=NOC(C)(C)C(=O)O)c3csc(N)n3)C(=O)N2C(C(=O)[O-])=C1CSc1cc[n+](C(CF)CF)cc1 [Compound 17, (6R,7R)-7-((Z)-2-(2-Aminothiazole-4-yl)-2-(2-carboxyprop-2-oxyimino)acetamide)-(2S)-2-methyl-3-(1-(1,3-difluoroprop-2-yl)-pyridinium-4-ylthiomethyl)-1-oxa-1-dethiaceph-3-em-4-carboxylate (Sodium Salt)] | – | –
